# Data taken from the supplement of paper PMC10307832.
# How the values were obtained:
# Assay in all cases: relative viability (nuclei count vs DMSO), 5 days (fraction); higher = more cells survive
# SGI-1776 + Trametinib = compound: CN1CCC(CNc2ccc3ncc(-c4cccc(OC(F)(F)F)c4)n3n2)CC1 [SGI-1776] + CC(=O)Nc1cccc(-n2c(=O)n(C3CC3)c(=O)c3c(Nc4ccc(I)cc4F)n(C)c(=O)c(C)c32)c1 [Trametinib] (partner 0.02 µM)
# Summary of the method: (§1)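 Five library-drug doses in √10 steps were combined with a fixed anchor-drug dose, or a single drug was given alone, by pin tool to lung cancer cell lines in 1536-well plates the day after seeding. Nuclei were stained and counted after 5 days. Relative viability is the nuclei count in treated wells over that in vehicle wells, taken as the median of duplicate plates.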
# [1] = compound: C1COCCN1C2=NC(=NC3=C2OC4=C3C=CC=N4)C5=CC(=CC=C5)NC(=O)C6=CN=C(C=C6)N + Cc1nc(NC(=O)N2CCC[C@H]2C(N)=O)sc1-c1ccnc(C(C)(C)C(F)(F)F)c1 [Alpelisib] (partner 2 µM)
# Summary of the method: as §1
# Entinostat + Lapatinib = compound: Nc1ccccc1NC(=O)c1ccc(CNC(=O)OCc2cccnc2)cc1 [Entinostat] + CS(=O)(=O)CCNCc1ccc(-c2ccc3ncnc(Nc4ccc(OCc5cccc(F)c5)c(Cl)c4)c3c2)o1 [Lapatinib] (partner 2 µM)
# Summary of the method: as §1
# SGI-1776 + Olaparib = compound: CN1CCC(CNc2ccc3ncc(-c4cccc(OC(F)(F)F)c4)n3n2)CC1 [SGI-1776] + O=C(c1cc(Cc2n[nH]c(=O)c3ccccc23)ccc1F)N1CCN(C(=O)C2CC2)CC1 [Olaparib] (partner 8 µM)
# Summary of the method: as §1
Cell Line,relative viability (SGI-1776 + Trametinib; first compound 0.08 µM),relative viability (SGI-1776 + Trametinib; first compound 0.8 µM),relative viability (SGI-1776 + Trametinib; first compound 2.53 µM),relative viability (SGI-1776 + Trametinib; first compound 8 µM),relative viability ([1]; first compound 0.02 µM),relative viability ([1]; first compound 0.06325 µM),relative viability ([1]; first compound 0.2 µM),relative viability ([1]; first compound 0.6325 µM),relative viability ([1]; first compound 2 µM),relative viability (Entinostat + Lapatinib; first compound 0.02 µM),relative viability (Entinostat + Lapatinib; first compound 0.06325 µM),relative viability (Entinostat + Lapatinib; first compound 0.2 µM),relative viability (Entinostat + Lapatinib; first compound 0.6325 µM),relative viability (Entinostat + Lapatinib; first compound 2 µM),relative viability (SGI-1776 + Olaparib; first compound 0.08 µM),relative viability (SGI-1776 + Olaparib; first compound 0.8 µM),relative viability (SGI-1776 + Olaparib; first compound 2.53 µM),relative viability (SGI-1776 + Olaparib; first compound 8 µM)
201T,0.702,0.77,0.711,0.702,1.03,1.03,0.926,0.96,0.966,1.02,1.03,0.959,0.937,0.665,0.856,0.893,0.854,0.9
A549,–,–,–,–,0.64,0.793,0.644,0.63,0.346,1,0.956,0.92,0.755,0.481,0.39,0.395,0.389,0.312
A-427,0.749,0.726,0.722,0.542,1.13,1.11,1.04,0.907,0.798,1.16,1.08,1.07,0.983,0.83,0.724,0.723,0.739,0.569
ABC-1,–,–,–,–,1.03,1.05,0.981,0.971,0.695,1.43,1.38,1.56,1.38,1.21,0.78,0.874,0.5,0.842
BEN,1.03,1.24,0.991,0.791,1.07,1.04,1.01,0.931,0.613,0.894,0.743,0.562,0.373,0.219,1.01,1.15,1.07,0.966
CAL-12T,0.433,0.399,0.33,0.288,1.26,1.29,1.26,1.15,0.537,0.606,0.762,0.55,0.501,0.466,0.713,0.738,0.833,0.696
COR-L23,0.694,0.619,0.613,0.408,0.958,0.876,0.844,0.868,0.589,0.967,0.995,0.905,0.579,0.176,0.345,0.396,0.377,0.275
COR-L 105,0.504,0.388,0.452,0.41,0.912,1.02,0.801,0.705,0.583,0.362,0.357,0.358,0.328,0.34,0.775,0.726,0.77,0.631
Calu-6,–,–,–,–,1.09,0.979,0.882,0.936,0.721,1.09,0.967,0.963,0.698,0.498,0.61,0.559,0.642,0.474
ChaGo-K-1,0.878,0.865,0.874,0.909,–,–,–,–,–,–,–,–,–,–,0.393,0.487,0.405,0.45
EBC-1,–,–,–,–,0.653,0.728,0.742,0.713,0.478,0.213,0.211,0.208,0.181,0.184,0.74,0.732,0.687,0.573
EKVX,0.386,0.342,0.344,0.31,0.838,0.787,0.94,0.867,0.572,0.254,0.219,0.209,0.161,0.153,0.827,0.906,0.875,0.737
EMC-BAC-2,0.992,0.966,0.853,0.879,0.794,0.867,0.785,0.707,0.589,0.873,0.956,0.901,0.682,0.499,0.504,0.506,0.509,0.452
EPLC-272H,0.288,0.282,0.307,0.282,0.972,0.883,0.974,0.967,0.673,0.951,0.831,1.27,0.365,0.334,1.01,0.922,0.737,0.348
H3255,0.633,0.582,0.577,0.559,0.577,0.714,0.628,0.693,0.483,0.21,0.309,0.161,0.145,0.156,0.563,0.595,0.646,0.529
HARA,0.652,0.74,0.604,0.732,0.927,0.946,0.922,0.743,0.436,0.792,0.872,0.786,0.671,0.374,1.09,0.986,0.667,0.57
HCC-15,0.262,0.376,0.332,0.338,0.901,0.848,0.843,0.827,0.637,0.866,0.779,0.726,0.345,0.288,0.717,0.759,0.755,0.687
HCC-44,1.04,1.05,0.988,1.09,0.803,0.879,1.04,0.807,0.499,1,0.88,0.7,0.258,0.311,0.998,0.973,0.89,0.984

Cell Line,relative viability (SGI-1776 + Trametinib; first compound 0.08 µM),relative viability (SGI-1776 + Trametinib; first compound 0.8 µM),relative viability (SGI-1776 + Trametinib; first compound 2.53 µM),relative viability (SGI-1776 + Trametinib; first compound 8 µM),relative viability ([1]; first compound 0.02 µM),relative viability ([1]; first compound 0.06325 µM),relative viability ([1]; first compound 0.2 µM),relative viability ([1]; first compound 0.6325 µM),relative viability ([1]; first compound 2 µM),relative viability (Entinostat + Lapatinib; first compound 0.02 µM),relative viability (Entinostat + Lapatinib; first compound 0.06325 µM),relative viability (Entinostat + Lapatinib; first compound 0.2 µM),relative viability (Entinostat + Lapatinib; first compound 0.6325 µM),relative viability (Entinostat + Lapatinib; first compound 2 µM),relative viability (SGI-1776 + Olaparib; first compound 0.08 µM),relative viability (SGI-1776 + Olaparib; first compound 0.8 µM),relative viability (SGI-1776 + Olaparib; first compound 2.53 µM),relative viability (SGI-1776 + Olaparib; first compound 8 µM)
HCC-78,0.772,0.804,0.693,0.72,0.34,0.331,0.378,0.324,0.318,0.829,0.702,0.33,0.169,0.169,0.891,0.91,0.801,0.95
HCC-366,0.344,0.368,0.289,0.19,0.575,0.471,0.314,0.287,0.189,1.02,1.04,0.66,0.218,0.0452,0.347,0.449,0.379,0.294
HCC-827,0.578,0.534,0.578,0.464,0.984,0.92,0.958,0.961,0.815,0.18,0.184,0.126,0.147,0.17,0.694,0.615,0.739,0.658
HOP-62,0.384,0.359,0.437,0.367,0.818,1.13,0.947,0.979,0.518,1.12,0.994,0.907,0.532,0.323,0.436,0.63,0.448,0.59
IA-LM,–,–,–,–,–,0.853,0.582,0.609,0.43,0.892,0.926,1.17,0.601,0.514,0.97,0.785,0.919,0.846
LC-2-ad,0.885,0.926,0.931,0.822,0.824,0.83,0.893,0.782,0.531,0.975,0.904,0.907,0.334,0.113,0.755,0.776,0.756,0.696
LCLC-97TM1,0.216,0.205,0.195,0.199,–,0.265,0.208,0.313,0.249,0.942,1.21,0.784,0.41,0.326,0.421,0.421,0.419,0.439
LCLC-103H,0.658,0.689,0.633,0.642,0.87,0.993,0.962,0.967,0.878,–,–,–,–,–,0.781,0.776,0.716,0.7
NCI-H441,0.497,0.51,0.5,0.294,0.832,0.93,0.751,0.715,0.433,–,–,–,–,–,0.569,0.521,0.608,0.491
NCI-H522,0.81,0.789,0.723,0.798,–,–,–,–,–,–,–,–,–,–,0.612,0.52,0.623,0.551
NCI-H1299,–,–,–,–,1.1,1.11,1.09,1.06,0.857,0.927,0.933,0.956,0.805,0.571,1.01,0.962,1.05,0.897
NCI-H1563,–,–,–,–,0.886,0.871,0.855,0.843,0.729,0.915,1.01,0.891,0.821,0.581,–,–,–,–
NCI-H1648,0.397,0.441,0.415,0.398,–,–,–,–,–,–,–,–,–,–,0.648,0.763,0.761,1.21
NCI-H1650,0.543,0.521,0.504,0.371,–,–,–,–,–,0.79,0.897,0.888,0.521,0.329,0.8,0.946,0.734,0.607
NCI-H1703,–,–,–,–,0.282,0.315,0.288,0.289,0.201,1.22,1.17,1.59,1.05,0.453,0.338,0.394,0.387,0.12
NCI-H2342,0.891,0.779,0.809,0.769,–,–,–,–,–,–,–,–,–,–,0.525,0.445,0.454,0.49
SW 900,0.855,0.76,0.653,0.724,–,–,–,–,–,–,–,–,–,–,0.792,0.886,1.15,0.636
